Test results published in US20020137929A1, “1 - (3-heterocyclylphenyl) isothiourea, -isourea, -guanidine and -amidine herbicidal agents” (Intellectual Property Department, BASF Aktiengesellschaft, priority 1998, published 2002).

Key:
ABUTH (Velvetleaf) = experiment: Postemergence herbicidal evaluation; format: in vivo, Abutilon theophrasti; details: postemergence
In short: (§1)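 First, seedlings were raised for around two weeks. Next, test material in 50/50 acetone/water containing 0.5% TWEEN 20 was sprayed through a nozzle at 40 psi, equivalent to about 0.0156–0.500 kg/ha. Finally, after 4–5 weeks in the greenhouse, plants were rated 0–9.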

GALAP (Galium) = experiment: Postemergence herbicidal evaluation; format: in vivo, Galium aparine; details: postemergence
In short: as §1

ECHCG (Barnyardgrass) = experiment: Postemergence herbicidal evaluation; format: in vivo, Echinochloa crus-galli; details: postemergence
In short: as §1

SETVI (Foxtail, Green) = experiment: Postemergence herbicidal evaluation; format: in vivo, Setaria viridis; details: postemergence
In short: as §1

ORYSAT (Rice, Tebonnet) = experiment: Postemergence herbicidal evaluation; format: in vivo, Oryza sativa, (L.) Tebonnet; details: postemergence
In short: as §1

[1] = system: IPOHE (Morningglory, Ivyleaf); experiment: Preemergence herbicidal evaluation; format: in vivo, Ipomoea hederacea; details: preemergence, rated 4-5 weeks after treatment, 0-9 scale
In short: (§2)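 Seeds were planted in potting soil in cups, then sprayed preemergence with the test compound in aqueous acetone at about 0.0156 to 0.500 kg per hectare. Cups were kept under greenhouse conditions and visually rated 4–5 weeks after treatment on a 0–9 scale against an untreated control.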

[2] = system: TRZAWR (Wheat, Winter, cv Riband); experiment: Preemergence herbicidal evaluation; format: in vivo, Triticum aestivum; details: preemergence, rated 4-5 weeks after treatment, 0-9 scale
In short: as §2

ZEAMX (Corn, Field) = experiment: Preemergence herbicidal evaluation; format: in vivo, Zea mays; details: preemergence, rated 4-5 weeks after treatment, 0-9 scale
In short: as §2

[3] = system: ECHORC (Watergrass (Calif.)); experiment: Preemergence weed control under flooded paddy conditions; format: in vivo, Echinochloa oryzoides; details: rated 3-4 weeks after treatment
In short: (§3)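 Flooded-pot preemergence screen with silt loam and seeds in the upper 0.5 cm. Dose about 0.0313 to 0.500 kg/ha, delivered into flood water; visual 0-9 score after 3 to 4 weeks.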

CYPIR (Rice Flatsedge) [4] = experiment: as above; format: in vivo, Cyperus iria; details: rated 3-4 weeks after treatment
In short: as §3

MOOVA (Monochoria) = experiment: as above; format: in vivo, Monochoria vaginalis; details: rated 3-4 weeks after treatment
In short: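 Ratings on a 0-9 visual scale cover stand, vigor, malformation, size, chlorosis and overall appearance relative to a control, taken three to four weeks post-treatment. Application was into flood water over freshly sown silt loam at roughly 0.0313 to 0.500 kg/ha.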

CYPIR (Rice Flatsedge) [5] = experiment: Postemergence weed control under flooded paddy conditions; format: in vivo, Cyperus iria; details: postemergence weeds, rated 3 to 4 weeks after treatment
In short: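 With weeds 3 to 5 cm tall and rice at the 1.5 to 2.5 leaf stage, containers were flooded and water held 1.5 to 3 cm above soil. Compounds in 50/50 v/v aqueous/acetone went into the flood water at about 0.0313 to 0.500 kg/ha a.i. Effects were visually rated 0–9 against controls after three to four weeks in the greenhouse.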

CYPSE (Flatsedge) = experiment: as above; format: in vivo, Cyperus serotinus; details: postemergence weeds, rated 3 to 4 weeks after treatment
Excerpt: Results of herbicide evaluation are expressed on a rating scale (0-9). The scale is based upon a visual observation of plant stand, vigor, malformation, size, chlorosis and overall plant appearance as compared with a control.
Plastic containers containing weeds which are 3 to 5 cm tall and rice seedlings at the 1.5 to 2.5 leaf stage are flooded with water. The water is maintained at 1.5 to 3 cm above the soil surface for the duration of the experiment. Test compounds are applied as aqueous/ acetone mixtures 50/50 v/v directly into the flood water to provide the equivalent of about 0.0313 to 0.500 kg/ha of active ingredient. The treated containers are placed on greenhouse benches and cared for in accordance with conventional greenhouse procedures. Three to four weeks after treatment, the test is terminated and each container is examined and herbicidal effect rated according to the rating system provided in Example 37. The compounds evaluated are reported by compound number given in Example 37.

SMILES: CCOC(=O)CN1C(=O)C(CC(=O)NO)S/C1=N/c1cc(-n2c(=O)cc(C(F)(F)F)n(C)c2=O)c(F)cc1Cl (stereo not shown) [Compound 98, Ethyl 2-{{2-chloro-5-[3,6-dihydro-3-methyl-2,6-dioxo-4-(trifluoromethyl)-1(2H)-pyrimidinyl]-4-fluorophenyl}imino}-5-[(hydroxycarbamoyl)methyl]-4-oxo-3-thiazolidineacetate]
- ABUTH herbicidal rating (ABUTH (Velvetleaf); rate 0.0156 kg/ha): 2.0
- ABUTH herbicidal rating (ABUTH (Velvetleaf); rate 0.0313 kg/ha): 7.0
- ABUTH herbicidal rating (ABUTH (Velvetleaf); rate 0.0625 kg/ha): 9.0
- ABUTH herbicidal rating (ABUTH (Velvetleaf); rate 0.1250 kg/ha): 9.0
- GALAP herbicidal rating (GALAP (Galium); rate 0.0156 kg/ha): 0.0
- GALAP herbicidal rating (GALAP (Galium); rate 0.0313 kg/ha): 0.0
- GALAP herbicidal rating (GALAP (Galium); rate 0.0625 kg/ha): 0.0
- GALAP herbicidal rating (GALAP (Galium); rate 0.1250 kg/ha): 1.0
- ECHCG herbicidal rating (ECHCG (Barnyardgrass); rate 0.0156 kg/ha): 0.0
- ECHCG herbicidal rating (ECHCG (Barnyardgrass); rate 0.0313 kg/ha): 0.0
- ECHCG herbicidal rating (ECHCG (Barnyardgrass); rate 0.0625 kg/ha): 1.0
- ECHCG herbicidal rating (ECHCG (Barnyardgrass); rate 0.1250 kg/ha): 1.0
- SETVI herbicidal rating (SETVI (Foxtail, Green); rate 0.0156 kg/ha): 1.0
- SETVI herbicidal rating (SETVI (Foxtail, Green); rate 0.0313 kg/ha): 0.0
- SETVI herbicidal rating (SETVI (Foxtail, Green); rate 0.0625 kg/ha): 1.0
- SETVI herbicidal rating (SETVI (Foxtail, Green); rate 0.1250 kg/ha): 2.0
- ORYSAT herbicidal rating (ORYSAT (Rice, Tebonnet); rate 0.0156 kg/ha): 1.5
- ORYSAT herbicidal rating (ORYSAT (Rice, Tebonnet); rate 0.0313 kg/ha): 2.5
- ORYSAT herbicidal rating (ORYSAT (Rice, Tebonnet); rate 0.0625 kg/ha): 2.5
- ORYSAT herbicidal rating (ORYSAT (Rice, Tebonnet); rate 0.1250 kg/ha): 2.0
- IPOHE rating ([1]; 0.0156 kg/ha): 0.0
- IPOHE rating ([1]; 0.0313 kg/ha): 0.0
- IPOHE rating ([1]; 0.0625 kg/ha): 1.0
- IPOHE rating ([1]; 0.1250 kg/ha): 3.0
- IPOHE rating ([1]; 0.2500 kg/ha): 4.0
- IPOHE rating ([1]; 0.5000 kg/ha): 9.0
- TRZAWR rating ([2]; 0.0156 kg/ha): 0.0
- TRZAWR rating ([2]; 0.0313 kg/ha): 0.0
- TRZAWR rating ([2]; 0.0625 kg/ha): 0.0
- TRZAWR rating ([2]; 0.1250 kg/ha): 0.0
- TRZAWR rating ([2]; 0.2500 kg/ha): 1.0
- TRZAWR rating ([2]; 0.5000 kg/ha): 3.0
- ZEAMX rating (ZEAMX (Corn, Field); 0.0156 kg/ha): 0.0
- ZEAMX rating (ZEAMX (Corn, Field); 0.0313 kg/ha): 0.0
- ZEAMX rating (ZEAMX (Corn, Field); 0.0625 kg/ha): 0.0
- ZEAMX rating (ZEAMX (Corn, Field); 0.1250 kg/ha): 0.0
- ZEAMX rating (ZEAMX (Corn, Field); 0.2500 kg/ha): 4.0
- ZEAMX rating (ZEAMX (Corn, Field); 0.5000 kg/ha): 6.0
- ECHORC herbicidal effect rating ([3]; 0.0313 kg/ha): 0.0
- ECHORC herbicidal effect rating ([3]; 0.0625 kg/ha): 0.0
- ECHORC herbicidal effect rating ([3]; 0.1250 kg/ha): 1.0
- ECHORC herbicidal effect rating ([3]; 0.2500 kg/ha): 3.0
- CYPIR herbicidal effect rating (CYPIR (Rice Flatsedge) [4]; 0.0313 kg/ha): 9.0
- CYPIR herbicidal effect rating (CYPIR (Rice Flatsedge) [4]; 0.0625 kg/ha): 9.0
- CYPIR herbicidal effect rating (CYPIR (Rice Flatsedge) [4]; 0.1250 kg/ha): 9.0
- CYPIR herbicidal effect rating (CYPIR (Rice Flatsedge) [4]; 0.2500 kg/ha): 9.0
- MOOVA herbicidal effect rating (MOOVA (Monochoria); 0.0313 kg/ha): 9.0
- MOOVA herbicidal effect rating (MOOVA (Monochoria); 0.0625 kg/ha): 9.0
- MOOVA herbicidal effect rating (MOOVA (Monochoria); 0.1250 kg/ha): 9.0
- MOOVA herbicidal effect rating (MOOVA (Monochoria); 0.2500 kg/ha): 9.0
- Herbicidal rating CYPIR (CYPIR (Rice Flatsedge) [5]; Rate 0.0313 kg/ha): 9.0
- Herbicidal rating CYPIR (CYPIR (Rice Flatsedge) [5]; Rate 0.0625 kg/ha): 9.0
- Herbicidal rating CYPIR (CYPIR (Rice Flatsedge) [5]; Rate 0.1250 kg/ha): 9.0
- Herbicidal rating CYPIR (CYPIR (Rice Flatsedge) [5]; Rate 0.2500 kg/ha): 9.0
- Herbicidal rating CYPSE (CYPSE (Flatsedge); Rate 0.0313 kg/ha): 2.0
- Herbicidal rating CYPSE (CYPSE (Flatsedge); Rate 0.0625 kg/ha): 3.0
- Herbicidal rating CYPSE (CYPSE (Flatsedge); Rate 0.1250 kg/ha): 4.0
- Herbicidal rating CYPSE (CYPSE (Flatsedge); Rate 0.2500 kg/ha): 4.0
